The nature of data set [1]: Phase 2a pediatric study: pharmacokinetic profile of dupilumab. Particulars: pediatric patients with AD, compared with adults. Format: in vivo, human. As for the experimental part:
(§1) The study consisted of a screening period (day −35 to day −1), a baseline visit, Part A (including a single-dose treatment followed by an 8-week semi-dense PK sampling period), and Part B (including a 4-week repeat-dose treatment period [4 weekly doses] followed by an 8-week follow-up period).
(§2) Safety and tolerability was assessed by vital signs, physical examinations, clinical laboratory tests, and clinical evaluations. Patients were asked to monitor all adverse events (AEs) experienced from the time of informed consent/assent until their last study visit. Serum samples were collected for assay of dupilumab levels, and PK parameters were calculated using the dupilumab concentration data. Serum samples were collected for assay of ADA, and exploratory analyses. Efficacy was assessed during the study at specified clinic visits using the Pruritus NRS, SCORAD, and EASI that measure the extent and severity of AD, and the IGA that rates the overall severity of AD.

In data set [2] the test system is adults with moderate-to-severe AD. Particulars: for decrease in mean EASI (SD) score: 600 mg on Day 8, then 300 mg weekly. The procedure: Subcutaneous dupilumab was administered as a 600 mg loading dose on Day 8, followed by a weekly dose of 300 mg from Day 15 to Day 50. PK parameters included Geometric Mean Ratios (GMR) of AUClast (area under the plasma concentration-time curve from time zero to the time of the last quantifiable concentration) and Cmax (maximum observed plasma concentration) measured at Day 1 and Day 36, while efficacy assessments included changes in Eczema Area and Severity Index (EASI) scores (scale 0-72).

In data set [3] the test system is pediatric patients with moderate-to-severe AD (adolescents) or severe AD (children). Description: Phase 2a open-label ascending-dose study of dupilumab in pediatric AD (efficacy and safety). Particulars: for patients who achieved IGA 0-1 / peak pruritus NRS improved by / baseline EASI improved by: Week 12; for baseline EASI improved by: after repeated weekly doses; for reduction in EASI score from baseline: week 2. The class given is in vivo, human. The procedure:
This Example describes a phase 2a, multicenter, open-label, ascending-dose, sequential-cohort study (NCT02407756) which included adolescents (12-17 years) with moderate-to-severe AD and children (6-11 years) with severe AD, uncontrolled by topical medications. Patients received 2 mg/kg or 4 mg/kg single-dose subcutaneous dupilumab with 8 weeks follow-up, followed by 4 weekly 2 mg/kg or 4 mg/kg doses.
This was conducted as a phase 2a, multicenter, open-label, ascending dose, sequential cohort study investigating the safety, tolerability, pharmacokinetics (PK), immunogenicity, and efficacy of single-dose and repeat-doses of subcutaneously administered (SC) dupilumab in pediatric patients with moderate-to-severe AD (for adolescents ≥12 to <18 years of age) or severe AD (for children ≥6 to <12 years of age) that was not adequately controlled by topical treatments.
Two sequential ascending SC dose cohorts were planned: dose cohort 1 (2 mg/kg) and dose cohort 2 (4 mg/kg) up to a maximum dose of 300 mg. Within each dose cohort, approximately 36 to 40 patients were planned to be enrolled in 2 age subsets: subset A (adolescents ≥12 to <18 years of age) and subset B (children ≥6 to <12 years of age). Enrollment and study dosing started with cohort 1A (2 mg/kg, adolescent age subset) and proceeded in sequence to cohort 1B (2 mg/kg, children ≥6 to <12 years of age subset), cohort 2A (4 mg/kg, adolescent age subset), and cohort 2B (4 mg/kg, children ≥6 to <12 years of age subset); a safety review of data from the previous cohort(s) was performed before proceeding to the next cohort.
as §1
Sterile dupilumab drug product 150 mg/mL was provided in an aqueous buffered vehicle, pH 5.0. It was supplied in a 5-mL vial containing 2.5 mL (150 mg/mL) with a withdrawable volume of 2.0 mL or 300 mg of dupilumab. Study drug was administered SC by the investigator or other qualified study personnel at the following dose and dosing schedules: • For dose cohort 1: 2 mg/kg at day 1 as a single dose in Part A, then weekly at day 1 to week 3 in Part B as repeat doses • For dose cohort 2: 4 mg/kg at day 1 as a single dose in Part A, then weekly at day 1 to week 3 in Part B as repeat doses
The primary objective was characterizing the PK profiles of dupilumab in pediatric AD patients aged ≥6 to <18 years. The secondary endpoints were: • Incidence of TEAEs • Percent change from baseline in Eczema Area and Severity Index (EASI) • Percent change from baseline in SCORing Atopic Dermatitis (SCORAD) score • Percent change from baseline in Pruritus Numerical Rating Scale (NRS) • Percentage of patients with an IGA score of 0 or 1 • Change from baseline in % BSA affected by AD Study Variables and Procedures
as §2

“Also recorded” adds a separate entry of the source. Where two headings read alike, the source gives them in different places.

Regarding “dupilumab: fully human anti-IL-4R antibody; heavy chain SEQ ID NO: 9, light chain SEQ ID NO: 10”, the pharmacokinetic profile result in data set [1] was “consistent with adults”. In addition, the “decrease in mean EASI (SD) score” value in data set [2] (Day 35) is 59.3% (37.6); in data set [2] (Day 50), 87.2% (13.4). Besides, in data set [2] (in vivo), the “patients with at least one adverse event (AE)” value was 3 patients. The “serious AE leading to treatment discontinuation (systemic inflammatory response syndrome)” value in data set [2] (in vivo) was 1. Further, the “patients who achieved IGA 0-1” value in data set [3] (adolescent 2 mg cohort) is recorded as 10%; in data set [3] (adolescent 4 mg cohort) it was 35%; in data set [3] (children 2 mg/kg cohort), 16.7%; in data set [3] (children 4 mg cohort) it was 21.1%. For the same substance, the “peak pruritus NRS improved by” value in data set [3] (adolescent 2 mg cohort) stood at 30.8%; in data set [3] (adolescent 4 mg cohort), 37.6%; in data set [3] (children 2 mg/kg cohort), 41.6%; in data set [3] (children 4 mg cohort), 39.6%. In addition, the “baseline EASI improved by” value is listed as 66.4% in data set [3] (adolescent 2 mg cohort), 69.7% in data set [3] (adolescent 4 mg cohort), 76.2% in data set [3] (children 2 mg/kg cohort) and 63.4% in data set [3] (children 4 mg cohort). Further, the “reduction in EASI score from baseline” value is 34% in data set [3] (adolescent patients, single dose 2 mg/kg); 51% in data set [3] (adolescent patients, single dose 4 mg/kg); 37% in data set [3] (children, single dose 2 mg/kg); 33% in data set [3] (children, single dose 4 mg/kg). The safety and tolerability entry in data set [3] (single and repeated weekly doses of 2 mg/kg and 4 mg/kg, both pediatric age groups) was “No new safety signals; also recorded: generally safe and well tolerated”.

The record behind these values is patent US10485844B2, “Methods for treating severe atopic dermatitis by administering an IL-4R inhibitor” (Regeneron Pharmaceuticals, Inc., priority 2016, dated 2019).
